Where two headings read alike, the source gives them in different places.
Tests used:
Type in all cases: cell-based
[1] = Cytotoxicity (CC50) in MT4 cells, mock-infected; conditions: human
Procedure: (§1) Infected and uninfected cells are diluted in cell growth medium and 35 μL of 2000 (for MT4) cells is added to each well of the assay plates. Assay plates were then incubated in a 37° C. incubator. After 5 days of incubation, 25 μL of 2× concentrated CellTiter-Glo™ Reagent (catalog # G7573, Promega Biosciences, Inc., Madison, Wis.) was added to each well of the assay plate. Cell lysis was carried out by incubating at room temperature for 2-3 minutes, and then chemiluminescence was read using the Envision reader (PerkinElmer).

PXR (NR1I2) = PXR (NR1I2) (Homo sapiens (Human), UniProt O75469); assay: Human PXR activation assay (luciferase reporter, DPX2 cells); conditions: human
Procedure: Luciferase Reporter Gene Assay.
A stably transformed tumor cell line (DPX2) was plated on 96-well microtiter plates. […]. The number of viable cells was determined and the reporter gene activity was assessed. […]

HIV-IIIb = assay: Antiviral assay in MT4 cells; conditions: Human immunodeficiency virus 1, IIIB, MT4, 120 h, MT4 cells, HIV-IIIb, 5 days; read-out: EC50
Procedure: 1 mL aliquots of 2×10^6 MT4 cells are pre-infected for 1 and 3 hours respectively at 37° C. with 25 μL (MT4) or of either cell growth medium (mock-infected) or a fresh 1:250 dilution of an HIV-IIIb concentrated ABI stock (0.004 m.o.i. for MT4 cells). Infected and uninfected cells are diluted in cell growth medium and 35 μL of 2000 (for MT4) cells is added to each well of the assay plates.
as §1, with “Assay” for “Infected and uninfected cells are diluted in cell growth medium and 35 μL of 2000 (for MT4) cells is added to each well of the assay plates. Assay”

[2] = 15 uM, DPX2 cells, % Emax relative to rifampicin, adjusted for DMSO background, read-out: PXR % inh at 15 uM (adjusted)

Chain of PXR (NR1I2) (O75469 whole entry): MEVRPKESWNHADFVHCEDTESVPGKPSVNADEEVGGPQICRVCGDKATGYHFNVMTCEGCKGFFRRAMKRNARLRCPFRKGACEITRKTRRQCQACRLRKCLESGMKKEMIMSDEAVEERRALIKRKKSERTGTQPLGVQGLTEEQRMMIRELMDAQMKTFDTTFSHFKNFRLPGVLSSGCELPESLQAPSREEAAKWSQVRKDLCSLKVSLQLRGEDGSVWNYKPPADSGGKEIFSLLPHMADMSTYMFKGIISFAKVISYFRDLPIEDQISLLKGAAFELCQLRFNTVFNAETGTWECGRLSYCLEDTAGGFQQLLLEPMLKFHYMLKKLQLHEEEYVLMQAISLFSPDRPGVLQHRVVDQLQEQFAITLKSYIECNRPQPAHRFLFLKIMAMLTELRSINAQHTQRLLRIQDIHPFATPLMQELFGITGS

O=C(NCc1c(F)cc(F)cc1F)c1cn2c(c(O)c1=O)C(=O)N(CC(F)(F)F)[C@@H]1CCCC[C@H]12 [Compound 7]
CC50 at 5 days ([1]; mock-infected (uninfected)): 19800 nM
inhibition at 24 h, 15 µM (PXR (NR1I2); [2]): 36%
EC50 (HIV-IIIb): 14.9 nM

O=C(NCc1ccc(F)c(Cl)c1F)c1cn2c(c(O)c1=O)C(=O)N(CC(F)(F)F)[C@@H]1COCC[C@@H]12 [Compound 50]
CC50 at 5 days ([1]; mock-infected (uninfected)): 48400 nM
inhibition at 24 h, 15 µM (PXR (NR1I2); [2]): 1%
EC50 (HIV-IIIb): 2.68 nM

O=C(NCc1c(F)cc(F)cc1F)c1cn2c(c(O)c1=O)C(=O)N(CC(F)(F)F)[C@@H]1COCC[C@H]12 [Compound 35]
CC50 at 5 days ([1]; mock-infected (uninfected)): 16500 nM
inhibition at 24 h, 15 µM (PXR (NR1I2); [2]): 6%
EC50 (HIV-IIIb): 3.8 nM

CCN1C(=O)c2c(O)c(=O)c(C(=O)NCc3c(F)cc(F)cc3F)cn2[C@@H]2COC[C@@H]21 [Compound 45]
CC50 at 5 days ([1]; mock-infected (uninfected)): 36700 nM
inhibition at 24 h, 15 µM (PXR (NR1I2); [2]): 33%
EC50 (HIV-IIIb): 7.26 nM

O=C(NCc1c(F)cc(F)cc1F)c1cn2c(c(O)c1=O)C(=O)N(C1CC1)[C@H]1OCC[C@H]12 (racemic) [Compound 21]
CC50 at 5 days ([1]; mock-infected): 31100 nM
inhibition at 24 h, 15 µM (PXR (NR1I2); [2]): 6%
EC50 (HIV-IIIb): 3.45 nM

CCN1C(=O)c2c(O)c(=O)c(C(=O)NCc3ccc(F)c(C)c3F)cn2[C@H]2CCOC[C@H]21 [Compound 47]
CC50 at 5 days ([1]; mock-infected (uninfected)): 27200 nM
inhibition at 24 h, 15 µM (PXR (NR1I2); [2]): 9%
EC50 (HIV-IIIb): 5.7 nM

CN1C(=O)c2c(O)c(=O)c(C(=O)NCc3ccc(F)c(Cl)c3F)cn2[C@H]2C[C@@H]3C[C@@H]3[C@H]21 [Compound 52, (6aR,6bS,7aS,8aS)-N-(3-chloro-2,4-difluorobenzyl)-4-hydroxy-6-methyl-3,5-dioxo-5,6,6a,6b,7,7a,8,8a-octahydro-3H-cyclopropa[4,5]cyclopenta[1,2-e]pyrido[1,2-a]pyrazine-2-carboxamide]
CC50 at 5 days ([1]; mock-infected): 2820 nM
inhibition at 24 h, 15 µM (PXR (NR1I2); [2]): 24%
EC50 (HIV-IIIb): 4.95 nM

O=C(NCc1c(F)cc(F)cc1F)c1cn2c(c(O)c1=O)C(=O)N[C@@H]1CCCC[C@@H]12 [Compound 60]
CC50 at 5 days ([1]; mock-infected (uninfected)): 13800 nM
inhibition at 24 h, 15 µM (PXR (NR1I2); [2]): 2%
EC50 (HIV-IIIb): 1.9 nM

C[C@@H]1OCC[C@H]2[C@@H]1N(C)C(=O)c1c(O)c(=O)c(C(=O)NCc3ccc(F)c(Cl)c3F)cn12 [Compound 55, (4S,4aS,11aS)-N-(3-chloro-2,4-difluorobenzyl)-7-hydroxy-4,5-dimethyl-6,8-dioxo-1,2,4,4a,5,6,8,11a-octahydropyrano[3,4-e]pyrido[1,2-a]pyrazine-9-carboxamide]
CC50 at 5 days ([1]; mock-infected): 9660 nM
inhibition at 24 h, 15 µM (PXR (NR1I2); [2]): 2%
EC50 (HIV-IIIb): 1.91 nM

CN1C(=O)c2c(O)c(=O)c(C(=O)NCc3c(F)cc(F)cc3F)cn2[C@H]2CCCC[C@H]21 [Compound 59]
CC50 at 5 days ([1]; mock-infected): 11400 nM
inhibition at 24 h, 15 µM (PXR (NR1I2); [2]): 44%
EC50 (HIV-IIIb): 3.42 nM

O=C(NCc1c(F)cc(F)cc1F)c1cn2c(c(O)c1=O)C(=O)N(CC(F)(F)F)[C@@H]1CCOC[C@H]12 [Compound 8]
CC50 at 5 days ([1]; mock-infected (uninfected)): 57100 nM
inhibition at 24 h, 15 µM (PXR (NR1I2); [2]): 24%
EC50 (HIV-IIIb): 16.5 nM

CN1C(=O)c2c(O)c(=O)c(C(=O)NCc3c(F)cc(F)cc3F)cn2[C@H]2[C@@H]3C[C@@H]3C[C@H]21 [Compound 53, (6aR,7aR,8aR,8bS)-4-hydroxy-6-methyl-3,5-dioxo-N-(2,4,6-trifluorobenzyl)-5,6,6a,7,7a,8,8a, 8b-octahydro-3H-cyclopropa[3,4]cyclopenta[1,2-e]pyrido[1,2-a]pyrazine-2-carboxamide]
CC50 at 5 days ([1]; mock-infected): 13300 nM
inhibition at 24 h, 15 µM (PXR (NR1I2); [2]): 46%
EC50 (HIV-IIIb): 6.04 nM

CC(C)N1C(=O)c2c(O)c(=O)c(C(=O)NCc3c(F)cc(F)cc3F)cn2[C@H]2CCOC[C@H]21 [Compound 38]
CC50 at 5 days ([1]; mock-infected (uninfected)): 16600 nM
inhibition at 24 h, 15 µM (PXR (NR1I2); [2]): 67%
EC50 (HIV-IIIb): 2.83 nM

CCN1C(=O)c2c(O)c(=O)c(C(=O)NCc3ccc(F)c(Cl)c3F)cn2[C@@H]2CCOC[C@H]21 [Compound 13]
CC50 at 5 days ([1]; mock-infected (uninfected)): 7320 nM
inhibition at 24 h, 15 µM (PXR (NR1I2); [2]): 5%
EC50 (HIV-IIIb): 10.7 nM

CN1C(=O)c2c(O)c(=O)c(C(=O)NCc3ccc(F)c(Cl)c3F)cn2[C@@H]2CCOC[C@H]21 [Compound 11]
CC50 at 5 days ([1]; mock-infected (uninfected)): 8320 nM
inhibition at 24 h, 15 µM (PXR (NR1I2); [2]): 4%
EC50 (HIV-IIIb): 3.69 nM

CN1C(=O)c2c(O)c(=O)c(C(=O)NCc3c(F)cc(F)cc3F)cn2[C@H]2COC[C@H]21 [Compound 42]
CC50 at 5 days ([1]; mock-infected (uninfected)): 31900 nM
inhibition at 24 h, 15 µM (PXR (NR1I2); [2]): 3%
EC50 (HIV-IIIb): 5.67 nM

O=C(NCc1c(F)cc(F)cc1F)c1cn2c(c(O)c1=O)C(=O)N[C@H]1CCC[C@H]12 [Compound 28]
CC50 at 5 days ([1]; mock-infected (uninfected)): 10800 nM
inhibition at 24 h, 15 µM (PXR (NR1I2); [2]): 4%
EC50 (HIV-IIIb): 4.4 nM

CN1C(=O)c2c(O)c(=O)c(C(=O)NCc3c(F)cc(F)cc3F)cn2[C@H]2COCC[C@]21C [Compound 14]
CC50 at 5 days ([1]; mock-infected (uninfected)): 11600 nM
inhibition at 24 h, 15 µM (PXR (NR1I2); [2]): 26%
EC50 (HIV-IIIb): 2.89 nM

CCN1C(=O)c2c(O)c(=O)c(C(=O)NCc3c(F)cc(F)cc3F)cn2[C@H]2CCC(=O)C[C@H]21 [Compound 40a]
CC50 at 5 days ([1]; mock-infected (uninfected)): 29000 nM
inhibition at 24 h, 15 µM (PXR (NR1I2)): 4%
EC50 (HIV-IIIb): 1.28 nM

CCN1C(=O)c2c(O)c(=O)c(C(=O)NCc3ccc(F)c(F)c3)cn2[C@H]2CCOC[C@H]21 [Compound 20]
CC50 at 5 days ([1]; mock-infected (uninfected)): 34100 nM
inhibition at 24 h, 15 µM (PXR (NR1I2); [2]): 1%
EC50 (HIV-IIIb): 9.6 nM

CCN1C(=O)c2c(O)c(=O)c(C(=O)NCc3c(F)cc(F)cc3F)cn2[C@@H]2CCCC[C@@H]21 [Compound 5]
CC50 at 5 days ([1]; mock-infected (uninfected)): 17000 nM
inhibition at 24 h, 15 µM (PXR (NR1I2); [2]): 66%
EC50 (HIV-IIIb): 4.74 nM

CCN1C(=O)c2c(O)c(=O)c(C(=O)NCc3c(F)cc(F)cc3F)cn2[C@H]2CCO[C@H]21 [Compound 26b]
CC50 at 5 days ([1]; mock-infected (uninfected)): 30900 nM
inhibition at 24 h, 15 µM (PXR (NR1I2); [2]): 24%
EC50 (HIV-IIIb): 4.93 nM

CCCN1C(=O)c2c(O)c(=O)c(C(=O)NCc3c(F)cc(F)cc3F)cn2[C@H]2CCOC[C@H]21 [Compound 37]
CC50 at 5 days ([1]; mock-infected (uninfected)): 33900 nM
inhibition at 24 h, 15 µM (PXR (NR1I2); [2]): 35%
EC50 (HIV-IIIb): 4.27 nM

CCN1C(=O)c2c(O)c(=O)c(C(=O)NCc3cc(F)c(F)cc3F)cn2[C@H]2CCOC[C@H]21 [Compound 17]
CC50 at 5 days ([1]; mock-infected (uninfected)): 23900 nM
inhibition at 24 h, 15 µM (PXR (NR1I2); [2]): 7%
EC50 (HIV-IIIb): 4.8 nM

CCN1C(=O)c2c(O)c(=O)c(C(=O)NCc3c(F)cc(F)cc3F)cn2[C@H]2COCC[C@H]21 [Compound 56, (4aR,11aR)-5-ethyl-7-hydroxy-6,8-dioxo-N-(2,4,6-trifluorobenzyl)-1,3,4,4a,5,6,8,11a-octahydropyrano[4,3-e]pyrido[1,2-a]pyrazine-9-carboxamide]
CC50 at 5 days ([1]; mock-infected): 4490 nM
inhibition at 24 h, 15 µM (PXR (NR1I2); [2]): 10%
EC50 (HIV-IIIb): 3.07 nM

CCN1C(=O)c2c(O)c(=O)c(C(=O)NCc3cccc(Cl)c3F)cn2[C@H]2CCOC[C@H]21 [Compound 16]
CC50 at 5 days ([1]; mock-infected (uninfected)): 11500 nM
inhibition at 24 h, 15 µM (PXR (NR1I2); [2]): 7%
EC50 (HIV-IIIb): 2.13 nM

CN1C(=O)c2c(O)c(=O)c(C(=O)NCc3ccc(F)c(Cl)c3F)cn2[C@@H]2CCO[C@@H]21 [Compound 27]
CC50 at 5 days ([1]; mock-infected (uninfected)): 57100 nM
EC50 (HIV-IIIb): 1.17 nM

CN1C(=O)c2c(O)c(=O)c(C(=O)NCc3c(F)cc(F)cc3F)cn2[C@@H]2CCCC[C@@H]21 [Compound 3]
CC50 at 5 days ([1]; mock-infected (uninfected)): 11000 nM
EC50 (HIV-IIIb): 2.96 nM

CN1C(=O)c2c(O)c(=O)c(C(=O)NCc3c(F)cc(F)cc3F)cn2[C@@H]2CCC[C@@H]21 [Compound 29]
inhibition at 15 µM (PXR (NR1I2); [2]): 49%

CN1C(=O)c2c(O)c(=O)c(C(=O)NCc3c(F)cc(F)cc3F)cn2[C@@H]2CCOC[C@H]21 [Compound 10]
CC50 at 5 days ([1]; mock-infected (uninfected)): 34900 nM
EC50 (HIV-IIIb): 7.65 nM

CN1C(=O)c2c(O)c(=O)c(C(=O)NCc3c(F)cc(F)cc3F)cn2[C@H]2CCC[C@H]21 [Compound 58]
inhibition at 15 µM (PXR (NR1I2); [2]): 25%
